Experimental findings from ChEMBL document CHEMBL1914411, “Synthesis of lipophilic dimeric C-7/C-7-linked ciprofloxacin and C-6/C-6-linked levofloxacin derivatives. Versatile in vitro biological evaluations of monomeric and dimeric fluoroquinolone derivatives as potential antitumor, antibacterial or antimycobacterial agents” (Eur J Med Chem, 2011) are described below.

In brackets after ≈: the same amount, converted by molar mass. Activity calls are given as the source filed them. No rule for the calls is given here.

The test system of one assay is Pseudomonas aeruginosa. Briefly: Antimicrobial activity against Pseudomonas aeruginosa CIP 82.118 after 18 to 24 hrs by broth microdilution method. The format is functional.
The test system of the next assay is Enterococcus hirae. Briefly: Antimicrobial activity against Enterococcus hirae CIP 5855 after 18 to 24 hrs by broth microdilution method. In kind it is functional.
Assay [1] deals with Staphylococcus aureus. Briefly: Antimicrobial activity against Staphylococcus aureus CIP 4.83 after 18 to 24 hrs by broth microdilution method. In kind it is functional.
The test system of another assay is Escherichia coli. Briefly: Antimicrobial activity against Escherichia coli CIP 53126 after 18 to 24 hrs by broth microdilution method. In kind it is functional.
Assay [2] concerns Mycobacterium tuberculosis. Briefly: Antimycobacterial activity against Mycobacterium tuberculosis H37Rv assessed as growth inhibition at 0.1 uM after 6 days by MTT colorimetric microassay. The format is functional, organism-based.
Assay [3] deals with Staphylococcus aureus. Briefly: Antimicrobial activity against multidrug-resistant Staphylococcus aureus isolate 1 after 18 to 24 hrs by broth microdilution method. The format is functional.
The test system of assay [4] is Staphylococcus aureus. Briefly: Antimicrobial activity against methicillin-resistant Staphylococcus aureus ATCC 33591 after 18 to 24 hrs by broth microdilution method. The format is functional.
Assay [5] concerns Staphylococcus aureus. Briefly: Antimicrobial activity against multidrug-resistant Staphylococcus aureus isolate 2 after 18 to 24 hrs by broth microdilution method. In kind it is functional.
Assay [6] deals with Staphylococcus aureus. Briefly: Antimicrobial activity against methicillin-resistant Staphylococcus aureus ATCC 33592 after 18 to 24 hrs by broth microdilution method. In kind it is functional.

With `CCCCCCCCOC(=O)N1CCN(c2cc3c(cc2F)c(=O)c(C(=O)O)cn3C2CC2)CC1`, the MBC in the assay with Pseudomonas aeruginosa came to 250 µM (≈ 122 µg/mL); in the assay on Enterococcus hirae, 125 µM (≈ 60.9 µg/mL); in the assay with Staphylococcus aureus [1] it was 62.5 µM (≈ 30.5 µg/mL); in the assay with Escherichia coli, 500 µM (≈ 244 µg/mL). Besides, the MIC in the assay on Pseudomonas aeruginosa turned out to be 125 µM (≈ 60.9 µg/mL); against Enterococcus hirae it was 125 µM (≈ 60.9 µg/mL); against Staphylococcus aureus [1], 7.8 µM (≈ 3.8 µg/mL); against Escherichia coli, 125 µM (≈ 60.9 µg/mL). Also, in [2], the “growth inhibition (GI)” value is “inactive”.

On to `CCCCC(=O)N1CCN(c2cc3c(cc2F)c(=O)c(C(=O)O)cn3C2CC2)CC1`, for which the MBC against Pseudomonas aeruginosa was 250 µM (≈ 104 µg/mL); with Enterococcus hirae it was 7.8 µM (≈ 3.24 µg/mL); with Staphylococcus aureus [1] it was at most 0.48 µM; against Staphylococcus aureus [3], 500 µM (≈ 208 µg/mL); against Staphylococcus aureus [4] it was 0.48 µM (≈ 0.199 µg/mL); against Staphylococcus aureus [5] it was 31.2 µM (≈ 13 µg/mL). Moreover, the MBC in the assay on Escherichia coli came to 15.6 µM (≈ 6.48 µg/mL); in the assay on Staphylococcus aureus [6], 0.48 µM (≈ 0.199 µg/mL). For the same compound, the MIC against Pseudomonas aeruginosa was 62.5 µM (≈ 26 µg/mL); against Enterococcus hirae, 7.8 µM (≈ 3.24 µg/mL); in the assay with Staphylococcus aureus [1], at most 0.24 µM; with Staphylococcus aureus [3], 62.5 µM (≈ 26 µg/mL); against Staphylococcus aureus [4], 0.48 µM (≈ 0.199 µg/mL); against Staphylococcus aureus [5], 31.2 µM (≈ 13 µg/mL). Besides, the minimal inhibitory concentration (MIC) in the assay on Escherichia coli worked out at 7.8 µM (≈ 3.24 µg/mL); in the assay on Staphylococcus aureus [6] it was 0.24 µM (≈ 0.0997 µg/mL). In addition, in [2], the “growth inhibition (GI)” value is “inactive”.

As for `CC(C)(C)OC(=O)N1CCN(c2cc3c(cc2F)c(=O)c(C(=O)O)cn3C2CC2)CC1`, the MBC against Pseudomonas aeruginosa was 250 µM (≈ 108 µg/mL); against Enterococcus hirae it was 15.6 µM (≈ 6.73 µg/mL); against Staphylococcus aureus [1], at most 0.24 µM; against Staphylococcus aureus [3] it was 500 µM (≈ 216 µg/mL); with Staphylococcus aureus [4], 0.48 µM (≈ 0.207 µg/mL); against Staphylococcus aureus [5] it was 31.2 µM (≈ 13.5 µg/mL). Further, the results for the MBC with Escherichia coli and with Staphylococcus aureus [6] were 1.9 µM (≈ 0.82 µg/mL) and 0.48 µM (≈ 0.207 µg/mL), respectively. The MIC against Pseudomonas aeruginosa was 15.6 µM (≈ 6.73 µg/mL); in the assay on Enterococcus hirae, 15.6 µM (≈ 6.73 µg/mL); in the assay with Staphylococcus aureus [1], at most 0.12 µM; in the assay on Staphylococcus aureus [3], 31.2 µM (≈ 13.5 µg/mL); with Staphylococcus aureus [4] it was 0.06 µM (≈ 0.0259 µg/mL); in the assay on Staphylococcus aureus [5] it was 15.6 µM (≈ 6.73 µg/mL). The values for the MIC with Escherichia coli and against Staphylococcus aureus [6] were 1.9 µM (≈ 0.82 µg/mL) and 0.12 µM (≈ 0.0518 µg/mL), respectively. Besides, the “growth inhibition (GI)” value in [2] was “inactive”.

Regarding `O=C(O)c1cn(C2CC2)c2cc(N3CCN(C(=O)CCl)CC3)c(F)cc2c1=O`, the MBC in the assay on Pseudomonas aeruginosa was 250 µM (≈ 102 µg/mL); against Enterococcus hirae, 3.9 µM (≈ 1.59 µg/mL); in the assay on Staphylococcus aureus [1], at most 0.97 µM; against Escherichia coli it was at most 0.97 µM. The MIC in the assay on Pseudomonas aeruginosa was 31.2 µM (≈ 12.7 µg/mL); in the assay with Enterococcus hirae, 3.9 µM (≈ 1.59 µg/mL); in the assay on Staphylococcus aureus [1], at most 0.97 µM; against Escherichia coli it was at most 0.97 µM. For the same compound, the “growth inhibition (GI)” value in assay [2] is “inactive”.

Take `CCCCCCCCCCCCCCCC(=O)OCC(=O)N1CCN(c2cc3c(cc2F)c(=O)c(C(=O)O)cn3C2CC2)CC1`: the minimum bactericidal concentration (MBC) stood at 250 µM (≈ 157 µg/mL) against Pseudomonas aeruginosa, 500 µM (≈ 314 µg/mL) against Enterococcus hirae, 500 µM (≈ 314 µg/mL) against Staphylococcus aureus [1] and 500 µM (≈ 314 µg/mL) in the assay on Escherichia coli. Moreover, the MIC worked out at 125 µM (≈ 78.5 µg/mL) against Pseudomonas aeruginosa, 125 µM (≈ 78.5 µg/mL) against Enterococcus hirae, 62.5 µM (≈ 39.2 µg/mL) against Staphylococcus aureus [1] and 125 µM (≈ 78.5 µg/mL) with Escherichia coli. For the same compound, the “growth inhibition (GI)” value in assay [2] was “inactive”.

In the case of `CCCC(=O)N1CCN(c2cc3c(cc2F)c(=O)c(C(=O)O)cn3C2CC2)CC1`, the MBC is 250 µM (≈ 100 µg/mL) in the assay on Pseudomonas aeruginosa; 7.8 µM (≈ 3.13 µg/mL) against Enterococcus hirae; at most 0.48 µM with Staphylococcus aureus [1]; 62.5 µM (≈ 25.1 µg/mL) against Staphylococcus aureus [3]; 0.48 µM (≈ 0.193 µg/mL) against Staphylococcus aureus [4]; 62.5 µM (≈ 25.1 µg/mL) in the assay on Staphylococcus aureus [5]. Moreover, the MBC stood at 7.8 µM (≈ 3.13 µg/mL) in the assay on Escherichia coli and 0.48 µM (≈ 0.193 µg/mL) against Staphylococcus aureus [6]. Besides, the MIC against Pseudomonas aeruginosa is 62.5 µM (≈ 25.1 µg/mL); in the assay on Enterococcus hirae, 7.8 µM (≈ 3.13 µg/mL); in the assay with Staphylococcus aureus [1], at most 0.48 µM; against Staphylococcus aureus [3], 31.2 µM (≈ 12.5 µg/mL); with Staphylococcus aureus [4], 0.48 µM (≈ 0.193 µg/mL); in the assay with Staphylococcus aureus [5], 31.2 µM (≈ 12.5 µg/mL). The figures for the MIC against Escherichia coli and against Staphylococcus aureus [6] were 7.8 µM (≈ 3.13 µg/mL) and 0.24 µM (≈ 0.0963 µg/mL), respectively. The “growth inhibition (GI)” value in [2] was “inactive”.

In the case of `CCCCCCCCCCOC(=O)N1CCN(c2cc3c(cc2F)c(=O)c(C(=O)O)cn3C2CC2)CC1`, the MBC came to 250 µM (≈ 129 µg/mL) in the assay on Pseudomonas aeruginosa, 500 µM (≈ 258 µg/mL) in the assay with Enterococcus hirae, 62.5 µM (≈ 32.2 µg/mL) against Staphylococcus aureus [1] and 500 µM (≈ 258 µg/mL) with Escherichia coli. In addition, the MIC with Pseudomonas aeruginosa was 125 µM (≈ 64.5 µg/mL); against Enterococcus hirae, 62.5 µM (≈ 32.2 µg/mL); with Staphylococcus aureus [1], 62.5 µM (≈ 32.2 µg/mL); in the assay with Escherichia coli, 125 µM (≈ 64.5 µg/mL). Besides, in [2], the “growth inhibition (GI)” value was “inactive”.

As to `O=C(O)c1cn(C2CC2)c2cc(N3CCN(C(=O)CO)CC3)c(F)cc2c1=O`, the minimal bactericidal concentration (MBC) with Pseudomonas aeruginosa was 250 µM (≈ 97.3 µg/mL); against Enterococcus hirae, 7.8 µM (≈ 3.04 µg/mL); in the assay on Staphylococcus aureus [1], 1.9 µM (≈ 0.74 µg/mL); in the assay on Staphylococcus aureus [3], above 500 µM; in the assay on Staphylococcus aureus [4], 1.9 µM (≈ 0.74 µg/mL); against Staphylococcus aureus [5], 62.5 µM (≈ 24.3 µg/mL). The MBC with Escherichia coli and in the assay on Staphylococcus aureus [6] was 1.9 µM (≈ 0.74 µg/mL) throughout. Moreover, the MIC was 15.6 µM (≈ 6.07 µg/mL) in the assay on Pseudomonas aeruginosa; 7.8 µM (≈ 3.04 µg/mL) in the assay on Enterococcus hirae; at most 0.97 µM against Staphylococcus aureus [1]; 125 µM (≈ 48.7 µg/mL) with Staphylococcus aureus [3]; 0.97 µM (≈ 0.378 µg/mL) in the assay with Staphylococcus aureus [4]; 62.5 µM (≈ 24.3 µg/mL) with Staphylococcus aureus [5]. Moreover, the MIC against Escherichia coli was at most 0.97 µM; against Staphylococcus aureus [6] it was 0.24 µM (≈ 0.0935 µg/mL). For the same compound, the “growth inhibition (GI)” value in assay [2] is “inactive”.
